“Also recorded” adds a separate entry of the source.
Key:
[1] = system: EKP-induced seizure behaviour in zebrafish larvae; assay: Zebrafish ethyl ketopentanoate (EKP) seizure model, behavioural analysis; type: in vivo, zebrafish (Danio rerio); settings: for active in the behavioural assay / tolerated in the behavioural assay: 5 dpf larvae, 2 h; for activity against EKP-induced drug-resistant seizures (behavioural) / reduction in EKP-induced drug-resistant seizures (non-significant): maximum tolerated concentration, 7-day-old larvae (FIG. 3); for activity against EKP-induced drug-resistant seizures (behavioural) / reduction in EKP-induced drug-resistant seizures (non-significant) / reduction in EKP-induced seizure behaviour (non-significant): 2 h incubation; for reduction in EKP-induced seizure behaviour (non-significant): 5-day-old larvae; for antiseizure activity at the behavioural level (in words): FIG. 5 and FIG. 3
Procedure: Experiments were performed as described in (16). In brief, a single 5 or 7 dpf larva was placed in each well of a 96-well plate and treated with either VHC (embryo medium with 1% DMSO) or test compound (dissolved in embryo medium, final solvent concentration of 1% DMSO) in a 100 μL volume. Larvae were incubated in the dark for 2 h at 28° C., whereafter 100 μL of either VHC (embryo medium with 1% DMSO) or 600 μM EKP (dissolved in embryo medium, final solvent concentration of 1% DMSO, 300 μM working concentration) was added to each well. Next, within 5 min the 96-well plate was placed in an automated tracking device (ZebraBox Viewpoint, France) and larval behaviour was video recorded for 30 min. The complete procedure was performed in dark conditions using infrared light. Total locomotor activity was recorded by ZebraLab software (Viewpoint, France) and expressed in actinteg units, which is the sum of pixel changes detected during the defined time interval (5 min). Larval behaviour was depicted as mean actinteg units per 5 min during the 30 min recording period and over consecutive time intervals. Data are pooled from independent experiments and expressed as mean±SD.
In our search for novel antiseizure compounds with the potential to treat drug-resistant seizures, the zebrafish EKP seizure model was used for hit identification and as critical gate-keeper for further investigation in the pharmacoresistant mouse 6-Hz (44 mA) psychomotor seizure model. An automated behavioural analysis was done of 7-day-old zebrafish larvae using video tracking (ViewPoint, France).
The compounds were tested in 5-day-old zebrafish larvae at 2 and/or 10 μM, depending on their tolerability, after 2 h incubation time. […] Among the antiseizure hits were compounds from 10 out of 11 classes tested, namely, propynones, propynals, propynols, propenones, amides, quinolinones, naphthyridinones, thiopyranoxides, pyrazolopyridines and indazoles.

[2] = system: EKP-induced epileptiform discharges in zebrafish larvae; assay: Zebrafish EKP seizure model, electrophysiology (non-invasive LFP recordings, PSD analysis); type: in vivo, zebrafish (Danio rerio); settings: 7 dpf larvae; for efficacy against EKP-induced epileptiform discharges 2 μM / efficacy against EKP-induced epileptiform discharges 10 μM: 22 h incubation, mean, normalized PSD 20-90 Hz; for effect on EKP-induced elevated PSD (in words): 22 h
Procedure: Non-invasive LFP recordings were measured from the midbrain (optic tectum) of 7 dpf zebrafish larvae pre-incubated with VHC only, EKP only, or compound and EKP. […] These steps occurred at 28° C., while further manipulation and electrophysiological recordings occurred at room temperature (±21° C.) and were performed as described before (16, 27). Each recording lasted 600 seconds.
A power spectral density (PSD) analysis of the recordings was performed using MatLab R2019 software (MATrix LABoratory, USA) as described in (26). The PSD estimate of each LFP recording was summed over each 10 Hz frequency band, ranging from 0 to 160 Hz. Next, the PSD estimates were normalized against the VHC control. Data are expressed as mean±SEM PSD per larva and per condition over the 20-90 Hz region. Outliers were identified via the ROUT test (Q=1%).
PSD analysis assumes that the epileptiform activity manifests as a high-power oscillation at certain frequencies (26). Thus, if epileptic activity occurs often during the recording an elevated PSD estimate should be found at the corresponding frequency band(s) (26).

male NMRI mice = assay: Mouse 6-Hz (44 mA) psychomotor seizure model; type: in vivo; settings: for mean seizure duration / dose-response relationship (in words): 30 min before stimulation; for dose-response relationship (in words): i.p.
Procedure: The antiseizure activity of compounds was investigated in the mouse 6-Hz (44 mA) psychomotor seizure model as described before (27). […] Seizure behaviour was video recorded and seizure durations were determined by blinded video analysis by experienced researchers, familiar with the different seizure characteristics. Data are expressed as mean±SD.
The 6-Hz 44 mA model is an acute model of pharmacoresistant focal impaired awareness seizures, previously referred to as complex partial or psychomotor seizures that are induced by a low frequency, long duration corneal electrical stimulation (6 Hz, 0.2 ms rectangular pulse width, 3 s duration, 44 mA). Seizures are typically characterized by a clonic phase and stereotypical automatic behaviours like stun, forelimb clonus, Straub tail and vibrissae twitching.

## Nc1ncccc1C(=O)C#Cc1ccc(Cl)c(Cl)c1 [Compound 1.13, 1-(2-aminopyridin-3-yl)-3-(3,4-dichlorophenyl)prop-2-yn-1-one]
[1]
  active in the behavioural assay: active
  tolerated in the behavioural assay: tolerated

## O=C(C#Cc1cccc(Cl)c1)c1cccnc1Cl [Compound 1.20, 3-(3-chlorophenyl)-1-(2-chloropyridin-3-yl)prop-2-yn-1-one]
[1]
  active in the behavioural assay: active
  tolerated in the behavioural assay: tolerated

## O=C(C#Cc1cccc(Cl)c1)c1cccnc1N1CCOCC1 [Compound 1.21, 3-(3-chlorophenyl)-1-(2-morpholinopyridin-3-yl)prop-2-yn-1-one]
[1]
  active in the behavioural assay: active
  tolerated in the behavioural assay: tolerated

## CC(C)(C)c1ccc(C#CC(=O)c2cccnc2N)cc1 [Compound 1.22, 1-(2-aminopyridin-3-yl)-3-(4-(tert-butyl)phenyl)prop-2-yn-1-one]
[1]
  activity against EKP-induced drug-resistant seizures (behavioural): active; also recorded: most effective
[2]; 2 μM
  efficacy against EKP-induced epileptiform discharges 2 μM: 45%

## CCCCCCC#CC(=O)c1cccnc1N [Compound 1.23, 1-(2-aminopyridin-3-yl)non-2-yn-1-one]
[1]
  reduction in EKP-induced drug-resistant seizures (non-significant): approximately 20%
[2]; 2 μM
  efficacy against EKP-induced epileptiform discharges 2 μM: 31%
[2]; 10 μM
  efficacy against EKP-induced epileptiform discharges 10 μM: −25%

## O=C(C#Cc1ccc(Cl)cc1)c1ccccc1 [Compound 1.31, 3-(4-chlorophenyl)-1-phenylprop-2-yn-1-one]
[1]
  active in the behavioural assay: active
  tolerated in the behavioural assay: tolerated

## O=C(C#Cc1cccc(F)c1)c1ccccc1 [Compound 1.35, 3-(3-fluorophenyl)-1-phenylprop-2-yn-1-one]
[1]
  active in the behavioural assay: active
  tolerated in the behavioural assay: tolerated

## CC(C)(C)c1ccc(C#CCc2ccccc2)cc1 [Compound 4.1, 1-(tert-butyl)-4-(3-phenylprop-1-yn-1-yl)benzene]
[1]; 2 μM
  reduction in EKP-induced seizure behaviour (non-significant): approximately 23%
[1]; 10 μM
  reduction in EKP-induced seizure behaviour (non-significant): ~19%
[1]
  antiseizure activity at the behavioural level (in words): did not show significant activity
[2]; 2 μM
  efficacy against EKP-induced epileptiform discharges 2 μM: 38%

## Nc1ncccc1C(=O)N1CCN(c2cccc(Cl)c2)CC1 [Compound 6.1, (2-aminopyridin-3-yl)(4-(3-chlorophenyl)piperazin-1-yl)methanone]
Male NMRI mice; 30 mg/kg i.p.
  mean seizure duration: 15.5 s
Male NMRI mice; 100 mg/kg i.p.
  mean seizure duration: 4.3 s
Male NMRI mice; 300 mg/kg i.p.
  mean seizure duration: 0.5 s
Male NMRI mice; 600 mg/kg i.p.
  mean seizure duration: 0.5 s
Male NMRI mice
  dose-response relationship (in words): displayed a dose-response relationship
[2]; 2 μM
  efficacy against EKP-induced epileptiform discharges 2 μM: 61%
[2]; 10 μM
  efficacy against EKP-induced epileptiform discharges 10 μM: 10%

## CC(C)(C)c1ccc(-c2cc(=O)c3ccccc3[nH]2)cc1 [Compound 7.1, 2-(4-(tert-butyl)phenyl)quinolin-4(1H)-one]
[1]
  antiseizure activity at the behavioural level (in words): significant antiseizure activity
  activity against EKP-induced drug-resistant seizures (behavioural): active
[2]; 2 μM
  effect on EKP-induced elevated PSD (in words): significantly elevated the PSD
  efficacy against EKP-induced epileptiform discharges 2 μM: −118%
[2]; 10 μM
  effect on EKP-induced elevated PSD (in words): significantly elevated the PSD
  efficacy against EKP-induced epileptiform discharges 10 μM: −217%

## CC(C)(C)c1ccc(-c2cc(=O)c3cccnc3[nH]2)cc1 [Compound 8.1, 2-(4-(tert-butyl)phenyl)-1,8-naphthyridin-4(1H)-one]
[1]
  activity against EKP-induced drug-resistant seizures (behavioural): active
Male NMRI mice; 30 mg/kg i.p.
  mean seizure duration: 12.5 s
Male NMRI mice; 100 mg/kg i.p.
  mean seizure duration: 9.7 s
Male NMRI mice; 300 mg/kg i.p.
  mean seizure duration: 2.8 s
Male NMRI mice; 600 mg/kg i.p.
  mean seizure duration: 0 s
Male NMRI mice
  dose-response relationship (in words): displayed a dose-response relationship
[2]; 2 μM
  efficacy against EKP-induced epileptiform discharges 2 μM: 57%
[2]; 10 μM
  efficacy against EKP-induced epileptiform discharges 10 μM: −117%

## COc1ccc(C(=O)C#Cc2ccc(C)cc2)cc1 [I.1, 1-(4-methoxyphenyl)-3-(p-tolyl)prop-2-yn-1-one]
[1]
  activity against EKP-induced drug-resistant seizures (behavioural): active

## Cc1ccc(C#CC(=O)c2ccc([N+](=O)[O-])cc2)cc1 [I.2, 1-(4-nitrophenyl)-3-(p-tolyl)prop-2-yn-1-one]
[1]
  activity against EKP-induced drug-resistant seizures (behavioural): active

## CC(C)(C)c1ccc(C#CC(=O)c2ccc(N)cc2)cc1 [I.4, 1-(4-aminophenyl)-3-(4-(tert-butyl)phenyl)prop-2-yn-1-one]
[1]
  activity against EKP-induced drug-resistant seizures (behavioural): active

## CC(C)(C)c1ccc(C#CC(=O)c2ccccc2N)cc1 [I.5, 1-(2-aminophenyl)-3-(4-(tert-butyl)phenyl)prop-2-yn-1-one]
[1]
  activity against EKP-induced drug-resistant seizures (behavioural): active

## CCCCCCC#CC(=O)c1ccccc1N [I.6, 1-(2-aminophenyl)non-2-yn-1-one]
[1]
  reduction in EKP-induced drug-resistant seizures (non-significant): approximately 20%

## CCCCCCC#CC(=O)c1ccc(C(=O)OCC)cc1 [I.7, ethyl 4-(non-2-ynoyl)benzoate]
[1]
  reduction in EKP-induced drug-resistant seizures (non-significant): approximately 20%

## CC(C)(C)c1ccc(C#CC(=O)c2ccsc2)cc1 [I.8, 3-(4-(tert-butyl)phenyl)-1-(thiophen-3-yl)prop-2-yn-1-one]
[1]
  activity against EKP-induced drug-resistant seizures (behavioural): active

## CCCCCCC#CC(=O)c1ccsc1 [I.9, 1-(thiophen-3-yl)non-2-yn-1-one]
[1]
  activity against EKP-induced drug-resistant seizures (behavioural): active

## O=C(C#CC1CC1)c1ccsc1 [I.10, 3-cyclopropyl-1-(thiophen-3-yl)prop-2-yn-1-one]
[1]
  activity against EKP-induced drug-resistant seizures (behavioural): active

## Cc1ccncc1C(=O)C#Cc1ccc(C(C)(C)C)cc1 [I.11, 3-(4-(tert-butyl)phenyl)-1-(4-methylpyridin-3-yl)prop-2-yn-1-one]
[1]
  activity against EKP-induced drug-resistant seizures (behavioural): active

## CNc1ccccc1C(=O)C#Cc1ccc(C(C)(C)C)cc1 [I.14, 3-(4-(tert-butyl)phenyl)-1-(2-(methylamino)phenyl)prop-2-yn-1-one]
[1]
  activity against EKP-induced drug-resistant seizures (behavioural): active

## O=c1cc(-c2ccccc2)[nH]c2ccccc12 [III.1, 2-phenylquinolin-4(1H)-one]
[1]
  reduction in EKP-induced drug-resistant seizures (non-significant): approximately 20%

## CCCC(CCC)C(=O)[O-].[Na+] [valproate, sodium valproate, reference compound]
Male NMRI mice; 300 mg/kg i.p., positive control
  protection against the electrically induced seizures (in words): completely protected
